Laboratory results from ChEMBL document CHEMBL5634205, “Pyrazolopyridine-based kinase inhibitors for anti-cancer targeted therapy” (RSC Med Chem, 2024).

Target: T1, Tyrosine-protein kinase receptor TYRO3 (Homo sapiens, UniProt Q06418)
T1 sequence (Q06418 whole entry): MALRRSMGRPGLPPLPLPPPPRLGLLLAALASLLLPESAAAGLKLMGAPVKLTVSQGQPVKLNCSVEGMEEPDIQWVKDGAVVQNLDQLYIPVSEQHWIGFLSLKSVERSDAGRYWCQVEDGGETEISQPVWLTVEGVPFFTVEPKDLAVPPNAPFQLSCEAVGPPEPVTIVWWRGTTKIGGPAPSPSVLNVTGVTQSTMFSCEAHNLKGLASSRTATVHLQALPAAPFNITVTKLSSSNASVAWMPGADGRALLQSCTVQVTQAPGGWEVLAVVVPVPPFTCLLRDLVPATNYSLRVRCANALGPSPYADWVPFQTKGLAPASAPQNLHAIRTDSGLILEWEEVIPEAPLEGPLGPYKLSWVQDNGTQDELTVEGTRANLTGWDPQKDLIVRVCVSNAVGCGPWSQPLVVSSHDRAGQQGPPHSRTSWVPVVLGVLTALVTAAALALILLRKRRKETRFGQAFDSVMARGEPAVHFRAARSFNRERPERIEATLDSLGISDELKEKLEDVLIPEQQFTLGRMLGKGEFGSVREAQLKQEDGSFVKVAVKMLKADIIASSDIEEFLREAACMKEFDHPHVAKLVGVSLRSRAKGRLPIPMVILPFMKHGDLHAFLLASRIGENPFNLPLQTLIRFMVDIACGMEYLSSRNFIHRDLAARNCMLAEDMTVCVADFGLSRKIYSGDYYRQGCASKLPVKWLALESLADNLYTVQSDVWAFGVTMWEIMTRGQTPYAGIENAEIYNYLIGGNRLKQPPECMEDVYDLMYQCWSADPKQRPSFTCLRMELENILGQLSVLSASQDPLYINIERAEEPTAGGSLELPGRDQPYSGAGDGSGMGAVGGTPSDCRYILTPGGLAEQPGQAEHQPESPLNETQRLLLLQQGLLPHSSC
Experiment: Inhibition of SKY (unknown origin)

| IC50 | SMILES |
| --- | --- |
| 3.2 nM | CN1C(=O)CCc2cc(NC(=O)c3n[nH]c4ccccc34)ccc21 |
| 1.2 nM | O=C(O)c1cccc(C(=O)Nc2n[nH]c3ncc(-c4ccc(F)cc4)cc23)c1 |
